According to patent US4820694A, “Modifications of 3-O-demethylmycinose in macrocin and lactenocin” (priority 1986, dated 1989):
Converted amounts (≈) assume the structure as drawn. Where two headings read alike, the source gives them in different places.

Columns and labels:
[1] = test system: Haemophilus influenzae C.L.; test: standard agar-dilution MIC assay; format: cell-based; conditions: Haemophilus influenzae; agar-dilution; Ampicillin-sensitive strain; read-out: MIC
Procedure: (§1) The MIC's in Table III were determined by standard agar-dilution assays. The MIC's in Table IV were obtained using conventional brothdilution microtiter tests.

[2] = test system: Haemophilus influenzae 76; test: standard agar-dilution MIC assay; format: cell-based; conditions: Haemophilus influenzae, 76; agar-dilution; Ampicillin-resistant strain; read-out: MIC
Procedure: as §1

[3] = test system: Streptococcus Group D X66; test: standard agar-dilution MIC assay; format: cell-based; conditions: read-out: MIC
Procedure: as §1

[4] = test system: Staphylococcus aureus X400; test: standard agar-dilution MIC assay; format: cell-based; conditions: Staphylococcus aureus, X400
Procedure: as §1

[5] = test system: Staphylococcus aureus X1.1; test: standard agar-dilution MIC assay; format: cell-based; conditions: Staphylococcus aureus, X1.1
Procedure: as §1

[6] = test system: Staphylococcus aureus V41; test: standard agar-dilution MIC assay; format: cell-based; conditions: Staphylococcus aureus, V41
Procedure: as §1

[7] = test system: Staphylococcus epidermidis EPI1; test: standard agar-dilution MIC assay; format: cell-based; conditions: Staphylococcus epidermidis, EPI1
Procedure: as §1

[8] = test system: Streptococcus pyogenes C203; test: standard agar-dilution MIC assay; format: cell-based; conditions: Streptococcus pyogenes, C203
Procedure: as §1

Escherichia coli EC14 = test: standard agar-dilution MIC assay; format: cell-based; conditions: agar-dilution, read-out: MIC
Procedure: as §1

[9] = test system: Staphylococcus epidermidis EP12; test: standard agar-dilution MIC assay; format: cell-based
Procedure: as §1

[10] = test system: Streptococcus Group D 9960; test: standard agar-dilution MIC assay; format: cell-based; conditions: GROUPD9960, read-out: MIC
Procedure: as §1

[11] = test system: Pseudomonas aeruginosa X239; test: standard agar-dilution MIC assay; format: cell-based; conditions: Pseudomonas aeruginosa, X239; agar-dilution; read-out: MIC
Procedure: as §1

[12] = test system: Klebsiella pneumoniae X68; test: standard agar-dilution MIC assay; format: cell-based; conditions: Klebsiella pneumoniae, X68; agar-dilution; read-out: MIC
Procedure: as §1

[13] = test system: Pasteurella hemolytica 22C; test: broth-dilution microtiter MIC test; format: cell-based; conditions: Pasteurella, 22C; broth-dilution microtiter; read-out: MIC
Procedure: as §1

Streptococcus sp. 19F = test: broth-dilution microtiter MIC test; format: cell-based; conditions: Streptococcus, SP.19F
Procedure: as §1

[14] = test system: Staphylococcus aureus 19C; test: broth-dilution microtiter MIC test; format: cell-based; conditions: Staphylococcus aureus, 19C
Procedure: as §1

Mycoplasma synoviae 40A = test: broth-dilution microtiter MIC test; format: cell-based; conditions: Mycoplasmopsis synoviae, 40A
Procedure: as §1

Mycoplasma hyorhinis 29E = test: broth-dilution microtiter MIC test; format: cell-based; conditions: Mycoplasma, 29E
Procedure: as §1

[15] = test system: Pasteurella multocida 22A; test: broth-dilution microtiter MIC test; format: cell-based; conditions: Pasteurella multocida, 22A; broth-dilution microtiter; read-out: MIC
Procedure: as §1

[16] = test system: Pasteurella multocida 68C; test: broth-dilution microtiter MIC test; format: cell-based; conditions: Pasteurella multocida, 68C
Procedure: as §1

[17] = test system: Pasteurella multocida 40G; test: broth-dilution microtiter MIC test; format: cell-based; conditions: Pasteurella multocida, 40G; broth-dilution microtiter; read-out: MIC
Procedure: as §1

[18] = test system: Pasteurella multocida 60A; test: broth-dilution microtiter MIC test; format: cell-based; conditions: Pasteurella multocida, 60A; broth-dilution microtiter; Avian isolate; read-out: MIC
Procedure: as §1

[19] = test system: Bordetella bronchiseptica; test: broth-dilution microtiter MIC test; format: cell-based; conditions: Bordetella bronchiseptica; broth-dilution microtiter; read-out: MIC
Procedure: as §1

[20] = test system: Pasteurella hemolytica 41D; test: broth-dilution microtiter MIC test; format: cell-based; conditions: Pasteurella, 41D; broth-dilution microtiter; read-out: MIC
Procedure: as §1

[21] = test system: Mycoplasma gallisepticum 29C; test: broth-dilution microtiter MIC test; format: cell-based; conditions: Mycoplasmoides gallisepticum, 29C
Procedure: as §1

[22] = test system: Mycoplasma gallisepticum 15E; test: broth-dilution microtiter MIC test; format: cell-based; conditions: Mycoplasmoides gallisepticum, 15E
Procedure: as §1

[23] = test system: Pasteurella multocida 17E; test: broth-dilution microtiter MIC test; format: cell-based; conditions: Pasteurella multocida, 17E; broth-dilution microtiter; Bovine isolate; read-out: MIC
Procedure: as §1

[24] = test system: Pasteurella hemolytica 23C; test: broth-dilution microtiter MIC test; format: cell-based; conditions: Pasteurella, 23C; broth-dilution microtiter; read-out: MIC
Procedure: as §1

[25] = test system: Mycoplasma gallisepticum 36H; test: broth-dilution microtiter MIC test; format: cell-based; conditions: Mycoplasmoides gallisepticum, 36H
Procedure: as §1

[26] = test system: Streptococcus pneumoniae Park I; test: microbe, parasite or virus in culture; format: cell-based; conditions: Streptococcus pneumoniae
Procedure: as §1

[27] = test system: Staphylococcus aureus S13E; test: microbe, parasite or virus in culture; format: cell-based; conditions: Staphylococcus aureus, S13E
Procedure: as §1

[28] = test system: Streptococcus pyogenes C203; test: protection of mice experimentally infected with S. pyogenes C203; format: in vivo; conditions: mice, mg/kg × 2, doses given 1 and 4 hours postinfection, read-out: ED50
Procedure: The formula 1 compounds have shown in vivo antimicrobial activity against experimentally-induced infections in laboratory animals. When two doses of test compound were administered to mice experimentally infected with S. pyrogenes C203, the activity observed was measured as an ED50 value [effective dose in mg/kg to protect 50% of the test animals: see Warren Wick, et al., J. Bacteriol. 81, 233-235 (1961)].
^a mg/kg × 2; doses given 1 and 4 hours postinfection

[29] = broth-dilution microtiter, read-out: MIC

`CCC1OC(=O)CC(O)C(C)C(OC2OC(C)C(OC3CC(C)(O)C(O)C(C)O3)C(N(C)C)C2OC(C)=O)C(CC=O)CC(C)C(=O)C=CC(C)=CC1COC1OC(C)C(OC(=O)COc2ccccc2)C(OC(=O)COc2ccccc2)C1OC` (stereo not shown) [Compound 15, 2'-O-Acetyl-3'",4'"-di-O-phenoxyacetyl-macrocin] was tested, and the MIC [1] was greater than 128 µg/mL, the MIC [2] was greater than 128 µg/mL and the MIC [3] was 32 µg/mL (≈ 26.4 µM). The MIC [4] was 64 µg/mL (≈ 52.8 µM), the MIC [5] was 4 µg/mL (≈ 3.3 µM) and the MIC [6] was 8 µg/mL (≈ 6.6 µM). The MIC [7] was 32 µg/mL (≈ 26.4 µM), the MIC [8] was 4 µg/mL (≈ 3.3 µM) and the MIC (Escherichia coli EC14) was greater than 128 µg/mL. The MIC [9] was 32 µg/mL (≈ 26.4 µM), the MIC [10] was 32 µg/mL (≈ 26.4 µM) and the MIC [11] was greater than 128 µg/mL. For the same compound, the MIC [12] was greater than 128 µg/mL, the MIC [13] was greater than 50 µg/mL and the MIC (Streptococcus sp. 19F) was 3.12 µg/mL (≈ 2.57 µM). The MIC [14] was 25 µg/mL (≈ 20.6 µM), the MIC (Mycoplasma synoviae 40A) was 3.12 µg/mL (≈ 2.57 µM) and the MIC (Mycoplasma hyorhinis 29E) was 6.25 µg/mL (≈ 5.16 µM). It also gave an MIC [15] greater than 50 µg/mL, an MIC [16, 29] greater than 50 µg/mL and an MIC [17] greater than 50 µg/mL. For the same compound, the MIC [18] was greater than 50 µg/mL, the MIC [19] was greater than 50 µg/mL and the MIC [20] was greater than 50 µg/mL. For the same compound, the MIC [21] was 6.25 µg/mL (≈ 5.16 µM), the MIC [22] was 50 µg/mL (≈ 41.2 µM) and the MIC [23] was greater than 50 µg/mL. For the same compound, the MIC [24] was greater than 50 µg/mL, the MIC [25] was 50 µg/mL (≈ 41.2 µM) and the MIC [26] was 0.5 µg/mL (≈ 0.412 µM). For the same compound, the MIC [27] was 32 µg/mL (≈ 26.4 µM), the ED50 ([28]; C203, Oral) was 87.1 mg/kg and the ED50 ([28]; C203, sc, Subcutaneous) was greater than 10 mg/kg.

`CCC1OC(=O)CC(O)C(C)C(OC2OC(C)C(OC3CC(C)(O)C(O)C(C)O3)C(N(C)C)C2OC(C)=O)C(CC=O)CC(C)C(=O)C=CC(C)=CC1COC1OC(C)C(OC(C)=O)C(OC(C)=O)C1OC` (stereo not shown) [Compound 3, 2',3'",4'"-Tri-O-acetyl-macrocin] showed an MIC [1] greater than 128 µg/mL, an MIC [2] of 2 µg/mL (≈ 1.95 µM) and an MIC [3] of 8 µg/mL (≈ 7.78 µM). It also gave an MIC [4] of 4 µg/mL (≈ 3.89 µM), an MIC ([5]; agar-dilution, read-out: MIC) of 2 µg/mL (≈ 1.95 µM) and an MIC ([6]; agar-dilution, Penicillin-resistant strain, read-out: MIC) of 2 µg/mL (≈ 1.95 µM). For the same compound, the MIC ([7]; agar-dilution, read-out: MIC) was 2 µg/mL (≈ 1.95 µM), the MIC ([8]; agar-dilution, read-out: MIC) was 1 µg/mL (≈ 0.973 µM) and the MIC (Escherichia coli EC14) was greater than 128 µg/mL. It also gave an MIC ([9]; agar-dilution, read-out: MIC) of 2 µg/mL (≈ 1.95 µM), an MIC [10] of 4 µg/mL (≈ 3.89 µM) and an MIC [11] greater than 128 µg/mL. It also gave an MIC [12] greater than 128 µg/mL, an MIC [13] greater than 50 µg/mL and an MIC (Streptococcus sp. 19F) of 3.12 µg/mL (≈ 3.03 µM). It also gave an MIC [14, 29] of 6.25 µg/mL (≈ 6.08 µM), an MIC (Mycoplasma synoviae 40A; [29]) of 12.5 µg/mL (≈ 12.2 µM) and an MIC (Mycoplasma hyorhinis 29E) of 25 µg/mL (≈ 24.3 µM). For the same compound, the MIC [15] was greater than 50 µg/mL, the MIC [16, 29] was greater than 50 µg/mL and the MIC [17] was greater than 50 µg/mL. The MIC [18] was greater than 50 µg/mL, the MIC [19] was greater than 50 µg/mL and the MIC [20] was greater than 50 µg/mL. It also gave an MIC [21] of 3.12 µg/mL (≈ 3.03 µM), an MIC [22, 29] greater than 50 µg/mL and an MIC [23] greater than 50 µg/mL. The MIC [24] was greater than 50 µg/mL, the MIC [25, 29] was greater than 50 µg/mL and the MIC ([26]; agar-dilution, read-out: MIC) was 1 µg/mL (≈ 0.973 µM). It also gave an MIC [27] of 4 µg/mL (≈ 3.89 µM).

With `CCC1OC(=O)CC(O)C(C)C(OC2OC(C)C(OC3CC(C)(O)C(O)C(C)O3)C(N(C)C)C2OC(C)=O)C(CC=O)CC(C)C(=O)C=CC(C)=CC1COC1OC(C)C(OC(=O)CC(C)C)C(O)C1OC` (stereo not shown) [Compound 5, 2'-O-Acetyl-4'"-O-isovaleryl-macrocin] the MIC [1] was greater than 128 µg/mL, the MIC [2] was greater than 128 µg/mL and the MIC [3] was 2 µg/mL (≈ 1.95 µM). It also gave an MIC [4] of 4 µg/mL (≈ 3.89 µM), an MIC [5] of 2 µg/mL (≈ 1.95 µM) and an MIC [6] of 2 µg/mL (≈ 1.95 µM). For the same compound, the MIC [7] was 2 µg/mL (≈ 1.95 µM), the MIC [8] was 1 µg/mL (≈ 0.973 µM) and the MIC (Escherichia coli EC14) was greater than 128 µg/mL. For the same compound, the MIC [9] was 2 µg/mL (≈ 1.95 µM), the MIC [10] was 2 µg/mL (≈ 1.95 µM) and the MIC [11] was greater than 128 µg/mL. The MIC [12] was greater than 128 µg/mL, the MIC [13] was greater than 50 µg/mL and the MIC (Streptococcus sp. 19F) was 1.56 µg/mL (≈ 1.52 µM). The MIC [14] was 3.12 µg/mL (≈ 3.03 µM), the MIC (Mycoplasma synoviae 40A) was 1.56 µg/mL (≈ 1.52 µM) and the MIC (Mycoplasma hyorhinis 29E) was 1.56 µg/mL (≈ 1.52 µM). For the same compound, the MIC [15] was greater than 50 µg/mL, the MIC [16] was 50 µg/mL (≈ 48.6 µM) and the MIC [17] was greater than 50 µg/mL. The MIC [18] was greater than 50 µg/mL, the MIC [19] was greater than 50 µg/mL and the MIC [20] was greater than 50 µg/mL. The MIC [21] was 1.56 µg/mL (≈ 1.52 µM), the MIC [22] was 50 µg/mL (≈ 48.6 µM) and the MIC [23] was greater than 50 µg/mL. The MIC [24] was greater than 50 µg/mL, the MIC [25] was 50 µg/mL (≈ 48.6 µM) and the MIC [26] was 0.5 µg/mL (≈ 0.486 µM). For the same compound, the MIC [27] was 2 µg/mL (≈ 1.95 µM), the ED50 ([28]; C203, Oral) was 54.3 mg/kg and the ED50 ([28]; C203, sc, Subcutaneous) was 9.2 mg/kg.
